Laboratory results reported in US20240059671A1, “TYROSINE KINASE 2 (TYK2) DEGRADATION COMPOUNDS AND METHODS OF USE” (CULLGEN (SHANGHAI), INC., priority 2020, published 2024).

Biological target: TYK2 (Homo sapiens, UniProt P29597)
Experiment: TYK2 protein degradation in MOLT-4 cells by immunoblotting
Assay type: cell-based
Parameters: endogenous in cells; host or cells: MOLT-4
Conditions: MOLT-4 cells, 24 hours
How it was run: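 MOLT-4 cells were exposed to compounds at 0.5 and 5 μM for 24 h, then lysed in RIPA buffer with protease and phosphatase inhibitors. TYK2 was detected by SDS-PAGE immunoblot with chemiluminescence, and band densitometry gave percent degradation.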

TYK2, sequence (P29597 whole entry): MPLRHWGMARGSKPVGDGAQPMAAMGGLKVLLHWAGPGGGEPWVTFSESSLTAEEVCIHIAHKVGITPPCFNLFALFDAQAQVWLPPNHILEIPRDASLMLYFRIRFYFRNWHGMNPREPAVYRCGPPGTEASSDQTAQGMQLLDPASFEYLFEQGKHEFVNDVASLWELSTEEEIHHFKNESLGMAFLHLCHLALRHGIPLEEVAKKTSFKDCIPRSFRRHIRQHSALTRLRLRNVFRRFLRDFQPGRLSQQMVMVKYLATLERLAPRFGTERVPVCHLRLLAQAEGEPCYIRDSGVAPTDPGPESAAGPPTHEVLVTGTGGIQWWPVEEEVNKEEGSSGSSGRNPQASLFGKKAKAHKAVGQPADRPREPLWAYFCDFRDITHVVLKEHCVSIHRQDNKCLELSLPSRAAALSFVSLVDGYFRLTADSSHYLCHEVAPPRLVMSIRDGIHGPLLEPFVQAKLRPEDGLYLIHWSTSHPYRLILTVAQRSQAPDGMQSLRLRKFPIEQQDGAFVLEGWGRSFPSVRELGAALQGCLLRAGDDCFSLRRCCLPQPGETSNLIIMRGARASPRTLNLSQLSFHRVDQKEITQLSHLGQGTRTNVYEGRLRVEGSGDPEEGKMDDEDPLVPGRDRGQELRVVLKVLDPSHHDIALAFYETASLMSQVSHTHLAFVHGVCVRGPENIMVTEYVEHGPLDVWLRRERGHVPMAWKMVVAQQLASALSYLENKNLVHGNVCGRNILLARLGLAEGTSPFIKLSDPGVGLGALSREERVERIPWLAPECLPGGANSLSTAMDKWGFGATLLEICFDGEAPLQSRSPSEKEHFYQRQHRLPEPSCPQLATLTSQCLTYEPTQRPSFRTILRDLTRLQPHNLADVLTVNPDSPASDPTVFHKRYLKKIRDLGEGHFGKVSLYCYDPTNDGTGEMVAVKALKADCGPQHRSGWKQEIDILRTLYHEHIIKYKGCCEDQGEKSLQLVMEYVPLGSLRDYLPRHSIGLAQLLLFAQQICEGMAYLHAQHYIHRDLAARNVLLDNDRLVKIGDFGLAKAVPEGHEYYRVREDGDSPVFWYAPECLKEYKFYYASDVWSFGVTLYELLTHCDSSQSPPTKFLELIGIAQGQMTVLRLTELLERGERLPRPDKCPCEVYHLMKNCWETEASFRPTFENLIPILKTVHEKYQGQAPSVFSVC

| SMILES | TYK2 Degradation (0.5 μM) [%] | TYK2 Degradation (5 μM) [%] |
| --- | --- | --- |
| CNC(=O)c1nnc(NC(=O)C2CC2)cc1Nc1cccc(-c2ncn(CCNC(=O)CCCCCC(=O)N[C@H](C(=O)N3C[C@H](O)C[C@H]3C(=O)NCc3ccc(-c4scnc4C)cc3)C(C)(C)C)n2)c1OC [CPD-078, N^1-(2-(3-(3-((6-(Cyclopropanecarboxamido)-3-(methylcarbamoyl)pyridazin-4-yl)amino)-2-methoxyphenyl)-1H-1,2,4-triazol-1-yl)ethyl)-N^7-((S)-1-((2S,4R)-4-hydroxy-2-((4-(4-methylthiazol-5-yl)benzyl)carbamoyl)pyrrolidin-1-yl)-3,3-dimethyl-1-oxobutan-2-yl)heptanediamide] | ≤20 | ≤20 |
| CNC(=O)c1nnc(NC(=O)C2CC2)cc1Nc1cccc(-c2ncn(CCNC(=O)CCOCCOCCNc3ccc4c(c3)C(=O)N(C3CCC(=O)NC3=O)C4=O)n2)c1OC (centres unmarked) [CPD-019, 6-(Cyclopropanecarboxamido)-4-((3-(1-(2-(3-(2-(2-((2-(2,6-dioxopiperidin-3-yl)-1,3-dioxoisoindolin-5-yl)amino)ethoxy)ethoxy)propanamido)ethyl)-1H-1,2,4-triazol-3-yl)-2-methoxyphenyl)amino)-N-methylpyridazine-3-carboxamide] | ≤20 |  |
| CNC(=O)c1nnc(NC(=O)CNC(=O)CCOCCNc2cccc3c2C(=O)N(C2CCC(=O)NC2=O)C3=O)cc1Nc1cccc(-c2ncn(C)n2)c1OC (centres unmarked) [CPD-049, 6-(2-(3-(2-((2-(2,6-Dioxopiperidin-3-yl)-1,3-dioxoisoindolin-4-yl)amino)ethoxy)propanamido)acetamido)-4-((2-methoxy-3-(1-methyl-1H-1,2,4-triazol-3-yl)phenyl)amino)-N-methylpyridazine-3-carboxamide] | ≤20 | ≤20 |
| CNC(=O)c1nnc(NC(=O)CNC(=O)CCCCCNc2cccc3c2C(=O)N(C2CCC(=O)NC2=O)C3=O)cc1Nc1cccc(-c2ncn(C)n2)c1OC (centres unmarked) [CPD-046, 6-(2-(6-((2-(2,6-Dioxopiperidin-3-yl)-1,3-dioxoisoindolin-4-yl)amino)hexanamido)acetamido)-4-((2-methoxy-3-(1-methyl-1H-1,2,4-triazol-3-yl)phenyl)amino)-N-methylpyridazine-3-carboxamide] | ≤20 | ≤20 |
| CNC(=O)c1nnc(NC(=O)CNC(=O)COCCOCC(=O)N[C@H](C(=O)N2C[C@H](O)C[C@H]2C(=O)NCc2ccc(-c3scnc3C)cc2)C(C)(C)C)cc1Nc1cccc(-c2ncn(C)n2)c1OC [CPD-027, 6-((S)-13-((2S,4R)-4-Hydroxy-2-((4-(4-methylthiazol-5-yl)benzyl)carbamoyl)pyrrolidine-1-carbonyl)-14,14-dimethyl-4,11-dioxo-6,9-dioxa-3,12-diazapentadecanamido)-4-((2-methoxy-3-(1-methyl-1H-1,2,4-triazol-3-yl)phenyl)amino)-N-methylpyridazine-3-carboxamide] | ≤20 | ≤20 |
| CNC(=O)c1nnc(NC(=O)C2CC2)cc1Nc1cccc(-c2ncn(CCNC(=O)COCCOCC(=O)N[C@H](C(=O)N3C[C@H](O)C[C@H]3C(=O)NCc3ccc(-c4scnc4C)cc3)C(C)(C)C)n2)c1OC [CPD-068, 6-(Cyclopropanecarboxamido)-4-((3-(1-((S)-13-((2S,4R)-4-hydroxy-2-((4-(4-methylthiazol-5-yl)benzyl)carbamoyl)pyrrolidine-1-carbonyl)-14,14-dimethyl-4,11-dioxo-6,9-dioxa-3,12-diazapentadecyl)-1H-1,2,4-triazol-3-yl)-2-methoxyphenyl)amino)-N-methylpyridazine-3-carboxamide] | ≤20 | ≤20 |
